# Test results as given in publication PMC7385036, “An allosteric pocket for inhibition of bacterial Enzyme I identified by NMR-based fragment screening” (Journal of Structural Biology: X, 2020).
# Read-outs that look alike come from different tables or passages of the source.
# Assays:
# EIC domain of EI = target: T1, EIC domain of EI (Escherichia coli, UniProt P08839); assay: CSP-based NMR titration experiments (equilibrium dissociation constant); type: binding, E. coli
# T1 construct: made in house
# Excerpt: The affinity of the newly discovered EI ligands was investigated by acquiring CSP-based, NMR titration experiments on ^15N-labeled EIN or EIC at increasing concentration of small molecule ([Fielding, 2007]). The data were fit using a standard equilibrium dissociation equation ([Granot, 1983]) to obtain the equilibrium dissociation constant (KD) per each analyzed complex (Fig. 2d). This analysis identified six small molecules that bind the EIC domain of EI with low mM affinity (Fig. 2e).
# NMR titration experiments were measured at 37 °C in 20 mM Tris (pH 7.4), 100 mM NaCl, 4 mM MgCl2, 2 mM DTT, and 5% D2O. The protein concentration was 400 µM and the concentration of small molecule was varied between 0 and 8 mM. Spectra were processed using NMRPipe ([Delaglio et al., 1995]) and analyzed using the program SPARKY (http://www.cgl.ucsf.edu/home/sparky). Assignment of the ^1H-^15N cross-peaks for the EIC-small molecule complexes was performed by titration experiments, following the change in ^1H-^15N cross-peak positions as a function of added small molecule. Weighted combined ^1H/^15N chemical shift perturbations (ΔH/N) resulting from the addition of increasing concentrations of small molecule were calculated using the following equation ([Mulder et al., 1999]):(1) ΔH/N=ΔδHWH^2+ΔδNWN^2 where WH (=1) and WN (=0.154) are weighting factor for the ^1H and ^15N amide shifts, respectively. ΔδH and ΔδN are the ^1H and ^15N chemical shift differences in ppm, respectively, between free and bound states. The equilibrium dissociation constants (KD) for the EIC-inhibitor complexes were obtained by fitting the changes in ΔH/N with increasing concentration of small molecule using the equation ([Granot, 1983]):(2) ΔH/N=Δ0P+L+KD-P+L-KD^2-4PL/2P where Δ0 is the weighted combined ^1H/^15N chemical shift at saturation, and P and L are the protein and small molecule concentrations, respectively.
# full-length EI [1] = target: T2, full-length EI (Escherichia coli, UniProt P08839); details: read-out: Km,0 (Km in the absence of inhibitor); PEP as substrate of EI; kept fixed to its literature value, no reference given; cited from earlier work
# full-length EI [2] = target: T2, full-length EI; assay: Enzyme kinetic assay of phosphoryl transfer from PEP to HPr by 1H-15N SOFAST NMR; type: biochemical, E. coli; set-up: phosphoryl transfer from PEP to HPr catalyzed by full-length EI; made in house; details: 0.0, 1.5 and 6.0 mM compound, 25 °C, pH 7.4
# Excerpt: In such graphs, the y and x intercepts are equivalent to the inverse of the maximum velocity (1/Vmax) and the negative inverse of the Michaelis constant (−1/Km), respectively.
# Vmax,0 (the value of Vmax in the absence of inhibitor) was optimized to maximize the agreement between experimental and simulated data (Fig. 3c).
# Enzyme kinetic assay we run by measuring the rate of phosphoryl transfer from PEP to HPr catalyzed by full-length EI by using ^1H-^15N SOFAST NMR spectra as described previously ([Nguyen et al., 2018]). Reaction were run at 25 °C in 20 mM Tris (pH 7.4), 100 mM NaCl, 4 mM MgCl2, 2 mM DTT, and 5% D2O. The assay was performed in triplicate. The enzyme kinetic data measured at different concentration of inhibitor were fit using a completive or mixed inhibition model:(3) Competitiveinhibition-v0=Vmax,0PEP/Km,01+I/KI,S+PEP (4) Mixedinhibition-v0=Vmax,0PEP/Km,01+I/KI,S+PEP1+I/KI,I where v0 is the initial velocity of the enzymatic reaction, [PEP] and [I] are the concentration of substrate and inhibitor, respectively, KI,s is the equilibrium dissociation constant for the enzyme-inhibitor complex, KI,I is the dissociation constant for the interaction between the inhibitor and the enzyme-PEP complex, and Km,0 and Vmax,0 are the Michaelis constant and maximum velocity in the absence of inhibitors, respectively. The seven measured datasets (in the absence of inhibitor, and in the presence of two concentrations of each inhibitor) were fit globally.
# [3] = 15N-labeled EIC 400 µM, small molecule 0-8 mM, 37 °C, pH 7.4, read-out: KD
Compound,Kd (EIC domain of EI; [3]) [mM],Type of inhibition of EI (Lineweaver-Burk analysis) (full-length EI [2]),other results
CC(CN)Nc1ccc([N+](=O)[O-])cc1 (stereo not drawn) [compound 6],4.1,,
"C=C(OP(=O)(O)O)C(=O)O [PEP, phosphoenolpyruvate]",,,Km (full-length EI [1]): 350 µM
CNCc1[nH]c2ccccc2c1C [compound 2],2.6,competitive inhibitors,
NCc1ccc(-c2ccc(F)cc2)o1 [compound 1],2.5,competitive inhibitors,
NCc1ccc(Br)s1 [compound 4],2.9,,
Cc1nn(Cc2ccc(F)cc2)c(C)c1N [compound 3],3.2,mixed inhibitor,"Kd (EIC domain of EI; EIC, residues in the allosteric binding pocket fitted separately, read-out: KD, CSP titration data fitted for the residues in the allosteric binding pocket): 3.2 ± 0.2 mM; Kd (EIC domain of EI; EIC, residues in the β3α3 loop fitted separately, read-out: KD, CSP titration data fitted for the residues in the β3α3 loop): 3.5 ± 0.3 mM"
CC(C)Oc1ccc(Cl)cc1CN [compound 5],4.3,,
